Reference: ChEMBL document CHEMBL1147563, “Solid-phase synthesis and SAR of 4-carboxy-2-azetidinone mechanism-based tryptase inhibitors” (Bioorg Med Chem Lett, 2004)
One block for each molecule: values may come before it.

How the values were obtained:
Tryptase = Tryptase (Homo sapiens, UniProt Q9BZJ3+Q15661+Q9NRR2); assay: Inhibitory activity against human tryptase
Serine protease 1 [1] = target: T1, Serine protease 1 (Bos taurus, UniProt P00760); assay: Inhibitory activity against bovine trypsin
T1 sequence (P00760 whole entry): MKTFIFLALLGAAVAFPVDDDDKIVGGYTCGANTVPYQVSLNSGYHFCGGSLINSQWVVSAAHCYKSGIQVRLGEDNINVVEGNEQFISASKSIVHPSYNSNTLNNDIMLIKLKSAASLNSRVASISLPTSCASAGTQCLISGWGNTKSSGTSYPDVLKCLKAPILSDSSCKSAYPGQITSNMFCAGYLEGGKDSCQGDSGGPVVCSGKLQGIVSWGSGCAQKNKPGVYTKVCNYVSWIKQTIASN

[2] = target: T2, Serine protease 1 (Bos taurus) (UniProt P00760); assay: Inhibition of bovine trypsin at 0.2 uM
T2 sequence (whole entry): T1 sequence (P00760 whole entry)

Plasminogen = Plasminogen (Rattus norvegicus, UniProt Q01177); assay: Inhibitory activity against plasmin
Serine protease 1 [3] = target: Serine protease 1 (Homo sapiens, UniProt P07477); assay: Inhibitory activity against trypsin
[4] = target: Tissue-type plasminogen activator (Homo sapiens, UniProt P00750); assay: Inhibitory activity against tissue type plasminogen activator
Coagulation factor X = Coagulation factor X (Homo sapiens, UniProt P00742); assay: Inhibitory activity against Coagulation factor X
Prothrombin = Prothrombin (Homo sapiens, UniProt P00734); assay: Inhibitory activity against thrombin
[5] = target: Urokinase-type plasminogen activator (Homo sapiens, UniProt P00749); assay: Inhibitory activity against Urokinase-type plasminogen activator

Plasminogen, sequence (Q01177 97-581 limits assumed): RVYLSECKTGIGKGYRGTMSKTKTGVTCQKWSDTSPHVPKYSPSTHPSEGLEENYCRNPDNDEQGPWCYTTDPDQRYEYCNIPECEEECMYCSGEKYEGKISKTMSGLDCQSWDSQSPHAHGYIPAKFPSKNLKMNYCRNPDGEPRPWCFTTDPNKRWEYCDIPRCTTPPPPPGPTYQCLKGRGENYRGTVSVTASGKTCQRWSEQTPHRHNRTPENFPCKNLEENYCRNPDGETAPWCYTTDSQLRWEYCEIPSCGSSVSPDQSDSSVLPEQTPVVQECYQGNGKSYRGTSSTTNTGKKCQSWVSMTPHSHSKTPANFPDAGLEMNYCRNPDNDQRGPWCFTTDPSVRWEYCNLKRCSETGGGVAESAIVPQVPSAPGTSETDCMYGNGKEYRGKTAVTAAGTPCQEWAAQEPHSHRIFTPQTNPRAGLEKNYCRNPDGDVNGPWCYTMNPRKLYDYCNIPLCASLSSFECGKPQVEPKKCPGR
Plasminogen, sequence (Q01177 582-812 limits assumed): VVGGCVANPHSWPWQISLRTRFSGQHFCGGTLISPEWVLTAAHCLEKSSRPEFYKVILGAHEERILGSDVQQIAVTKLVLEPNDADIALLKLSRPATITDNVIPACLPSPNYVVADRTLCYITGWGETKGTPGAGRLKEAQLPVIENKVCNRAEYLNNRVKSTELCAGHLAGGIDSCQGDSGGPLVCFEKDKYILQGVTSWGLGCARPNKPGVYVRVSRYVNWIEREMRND
Serine protease 1 (Homo sapiens, UniProt P07477), sequence (P07477 whole entry): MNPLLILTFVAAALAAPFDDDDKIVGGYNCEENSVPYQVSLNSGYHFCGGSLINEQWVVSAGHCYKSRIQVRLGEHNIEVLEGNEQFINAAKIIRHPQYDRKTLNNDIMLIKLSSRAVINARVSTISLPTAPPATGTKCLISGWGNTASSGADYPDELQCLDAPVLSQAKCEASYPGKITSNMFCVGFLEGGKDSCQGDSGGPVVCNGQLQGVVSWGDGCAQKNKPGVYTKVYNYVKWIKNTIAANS
Tissue-type plasminogen activator, sequence (P00750 whole entry): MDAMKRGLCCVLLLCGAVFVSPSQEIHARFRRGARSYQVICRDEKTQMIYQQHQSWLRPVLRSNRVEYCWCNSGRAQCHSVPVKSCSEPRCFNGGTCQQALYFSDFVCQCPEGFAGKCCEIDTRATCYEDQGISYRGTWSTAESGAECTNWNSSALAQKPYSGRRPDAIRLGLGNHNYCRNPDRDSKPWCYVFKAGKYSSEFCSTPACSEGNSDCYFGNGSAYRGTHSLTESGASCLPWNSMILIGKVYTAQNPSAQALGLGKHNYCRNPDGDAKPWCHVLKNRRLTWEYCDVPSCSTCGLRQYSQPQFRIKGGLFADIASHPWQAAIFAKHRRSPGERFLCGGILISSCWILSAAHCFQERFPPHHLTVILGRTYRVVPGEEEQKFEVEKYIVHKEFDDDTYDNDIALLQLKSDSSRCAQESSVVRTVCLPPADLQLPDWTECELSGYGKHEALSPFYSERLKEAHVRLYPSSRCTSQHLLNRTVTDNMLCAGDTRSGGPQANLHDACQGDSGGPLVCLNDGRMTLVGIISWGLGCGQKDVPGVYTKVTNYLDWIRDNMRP
Coagulation factor X, sequence (P00742 41-179 limits assumed): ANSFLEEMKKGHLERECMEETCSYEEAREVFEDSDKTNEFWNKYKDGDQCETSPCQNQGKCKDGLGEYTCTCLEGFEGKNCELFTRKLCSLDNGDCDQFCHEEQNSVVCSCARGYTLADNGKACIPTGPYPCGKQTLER
Coagulation factor X, sequence (P00742 235-488 limits assumed): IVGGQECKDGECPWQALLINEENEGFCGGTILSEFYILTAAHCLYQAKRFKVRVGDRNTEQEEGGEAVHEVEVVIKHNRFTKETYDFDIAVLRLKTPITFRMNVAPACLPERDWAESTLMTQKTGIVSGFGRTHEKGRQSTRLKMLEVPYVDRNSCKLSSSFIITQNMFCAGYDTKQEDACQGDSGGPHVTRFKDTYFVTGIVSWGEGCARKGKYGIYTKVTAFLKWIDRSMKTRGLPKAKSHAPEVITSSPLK

SMILES: O=C(NCCCC(=O)N1CCN(C(=O)N2C(=O)[C@H](CC3CCNCC3)C2C(=O)O)CC1)OCc1ccccc1 (single isomer, unassigned)
IC50 (Tryptase): 6 nM
IC50 (Serine protease 1 [1]): 1200 nM

IC50 (Tryptase): 120 nM
IC50 (Serine protease 1 [1]): 1200 nM
SMILES: CCCCCCc1ccc(-c2ccc(C(=O)N3CCN(C(=O)N4C(=O)[C@H](CC5CCNCC5)C4C(=O)O)CC3)cc2)cc1 (single isomer, unassigned)

SMILES: O=C(O)C1[C@@H](CC2CCNCC2)C(=O)N1C(=O)N1CCN(C(=O)CCCCCc2ccc3ccccc3c2)CC1 (single isomer, unassigned)
IC50 (Tryptase): 1 nM
IC50 (Serine protease 1 [1]): 320 nM

SMILES: O=C(O)C1[C@@H](CC2CCNCC2)C(=O)N1C(=O)N1CCN(C(=O)c2ccccc2CCc2ccccc2)CC1 (single isomer, unassigned)
inhibition [2]: 60%
IC50 (Tryptase): 140 nM

SMILES: O=C(O)C1[C@@H](CC2CCNCC2)C(=O)N1C(=O)N1CCN(C(=O)Cc2cccc(Oc3ccccc3)c2)CC1 (single isomer, unassigned)
IC50 (Tryptase): 17 nM
IC50 (Serine protease 1 [1]): 970 nM

SMILES: O=C(O)C1[C@@H](CC2CCNCC2)C(=O)N1C(=O)N1CCN(C(=O)c2ccc3ccccc3n2)CC1 (single isomer, unassigned)
inhibition [2]: 51%
IC50 (Tryptase): 110 nM

SMILES: O=C(O)C1[C@@H](CC2CCNCC2)C(=O)N1C(=O)N1CCN(C(=O)c2ccccc2-c2ccccc2)CC1 (single isomer, unassigned)
inhibition [2]: 46%
IC50 (Tryptase): 42 nM

SMILES: O=C(O)C1[C@@H](CC2CCNCC2)C(=O)N1C(=O)N1CCN(C(=O)CCCc2ccc3ccccc3c2)CC1 (single isomer, unassigned)
IC50 (Tryptase): 10 nM
IC50 (Serine protease 1 [1]): 600 nM

SMILES: CC(C)(C)NC(=O)N1CCN(C(=O)N2C(=O)[C@H](CC3CCNCC3)[C@H]2C(=O)O)CC1
IC50 (Tryptase): 30 nM
IC50 (Plasminogen): 250 nM
IC50 (Serine protease 1 [1]): 1900 nM
IC50 (Serine protease 1 [3]): 62 nM
IC50 [4]: > 1100 nM
IC50 (Coagulation factor X): > 1100 nM
IC50 (Prothrombin): > 1100 nM
IC50 [5]: 34 nM

SMILES: O=C(O)C1[C@@H](CC2CCNCC2)C(=O)N1C(=O)N1CCN(C(=O)CCCCCCc2cccc3ccccc23)CC1 (single isomer, unassigned)
IC50 (Tryptase): 1 nM
IC50 (Serine protease 1 [1]): 320 nM

SMILES: O=C(O)C1[C@@H](CC2CCNCC2)C(=O)N1C(=O)N1CCN(C(=O)c2cc3ccccc3o2)CC1 (single isomer, unassigned)
inhibition [2]: 89%
IC50 (Tryptase): 21 nM

SMILES: O=C(O)C1[C@@H](CC2CCNCC2)C(=O)N1C(=O)N1CCN(C(=O)CCCCCc2ccccc2)CC1 (single isomer, unassigned)
IC50 (Plasminogen): 170 nM
IC50 (Serine protease 1 [1]): 310 nM
IC50 (Serine protease 1 [3]): 310 nM
IC50 [4]: > 33000 nM
IC50 [5]: 970 nM

SMILES: O=C(CCC(=O)N1CCN(C(=O)N2C(=O)[C@H](CC3CCNCC3)C2C(=O)O)CC1)NCCc1ccccc1 (single isomer, unassigned)
IC50 (Tryptase): 17 nM
IC50 (Serine protease 1 [1]): 1900 nM

SMILES: O=C(O)C1[C@@H](CC2CCNCC2)C(=O)N1C(=O)N1CCN(C(=O)Cc2ccc3c(c2)OCO3)CC1 (single isomer, unassigned)
inhibition [2]: 19%
IC50 (Tryptase): 55 nM

SMILES: CC1=NN(c2ccc(C(=O)N3CCN(C(=O)N4C(=O)[C@H](CC5CCNCC5)C4C(=O)O)CC3)cc2)C(=O)C1 (single isomer, unassigned)
inhibition [2]: 91%
IC50 (Tryptase): 380 nM

SMILES: O=C1CC[C@@H](C(=O)N2CCN(C(=O)N3C(=O)[C@H](CC4CCNCC4)C3C(=O)O)CC2)N1 (single isomer, unassigned)
inhibition [2]: 69%
IC50 (Tryptase): 170 nM

SMILES: O=C(O)C1[C@@H](CC2CCNCC2)C(=O)N1C(=O)N1CCN(C(=O)CCCCCCCc2ccccc2)CC1 (single isomer, unassigned)
IC50 (Tryptase): 5 nM
IC50 (Serine protease 1 [1]): 1300 nM

SMILES: O=C(O)C1[C@@H](CC2CCNCC2)C(=O)N1C(=O)N1CCN(C(=O)CCCC2CCCCC2)CC1 (single isomer, unassigned)
inhibition [2]: 40%
IC50 (Tryptase): 24 nM

SMILES: O=C(O)C1[C@@H](CC2CCNCC2)C(=O)N1C(=O)N1CCN(C(=O)c2ccc(C3CCCCC3)cc2)CC1 (single isomer, unassigned)
inhibition [2]: 76%
IC50 (Tryptase): 40 nM

SMILES: O=C(O)C1[C@@H](CC2CCNCC2)C(=O)N1C(=O)N1CCN(C(=O)CCCCCCc2ccccc2)CC1 (single isomer, unassigned)
IC50 (Tryptase): 5 nM
IC50 (Serine protease 1 [1]): 1300 nM

IC50 (Plasminogen): 430 nM
IC50 (Serine protease 1 [1]): 72 nM
IC50 (Serine protease 1 [3]): 4.5 nM
IC50 [4]: > 8250 nM
SMILES: CC(C)(C)NC(=O)N1CCN(C(=O)N2C(=O)[C@H](CCCN=C(N)N)C2C(=O)O)CC1 (single isomer, unassigned)

SMILES: Cc1cccc(CCC(=O)N2CCN(C(=O)N3C(=O)[C@H](CC4CCNCC4)C3C(=O)O)CC2)c1 (single isomer, unassigned)
IC50 (Tryptase): 13 nM
IC50 (Serine protease 1 [1]): 1200 nM

inhibition [2]: 72%
SMILES: O=C(O)C1[C@@H](CC2CCNCC2)C(=O)N1C(=O)N1CCN(C(=O)c2ccc3ccccc3c2)CC1 (single isomer, unassigned)

SMILES: O=C(O)C1[C@@H](CC2CCNCC2)C(=O)N1C(=O)N1CCN(C(=O)Cc2ccc(Oc3ccccc3)cc2)CC1 (single isomer, unassigned)
IC50 (Tryptase): 5 nM
IC50 (Serine protease 1 [1]): 950 nM

SMILES: O=C(O)C1[C@@H](CC2CCNCC2)C(=O)N1C(=O)N1CCN(C(=O)c2ccccc2Oc2ccccc2)CC1 (single isomer, unassigned)
inhibition [2]: 2%
IC50 (Tryptase): 120 nM

SMILES: O=C(O)C1[C@@H](CC2CCNCC2)C(=O)N1C(=O)N1CCN(C(=O)CCCCc2ccccc2)CC1 (single isomer, unassigned)
IC50 (Tryptase): 6 nM
IC50 (Serine protease 1 [1]): 810 nM

SMILES: O=C(O)C1[C@@H](CC2CCNCC2)C(=O)N1C(=O)N1CCN(C(=O)Cc2ccc3ccccc3c2)CC1 (single isomer, unassigned)
inhibition [2]: 22%
IC50 (Tryptase): 70 nM

SMILES: Cc1onc(-c2ccccc2)c1C(=O)N1CCN(C(=O)N2C(=O)[C@H](CC3CCNCC3)C2C(=O)O)CC1 (single isomer, unassigned)
inhibition [2]: 31%
IC50 (Tryptase): 290 nM

SMILES: O=C(O)C1[C@@H](CC2CCNCC2)C(=O)N1C(=O)N1CCN(C(=O)Cc2ccc(-c3ccccc3)cc2)CC1 (single isomer, unassigned)
IC50 (Tryptase): 5 nM
IC50 (Serine protease 1 [1]): 740 nM

SMILES: O=C(O)C1[C@@H](CC2CCNCC2)C(=O)N1C(=O)N1CCN(C(=O)c2cccc(Oc3ccccc3)c2)CC1 (single isomer, unassigned)
inhibition [2]: 78%
IC50 (Tryptase): 15 nM

SMILES: Cc1ccc(C2=CN=C(CCC(=O)N3CCN(C(=O)N4C(=O)[C@H](CC5CCNCC5)C4C(=O)O)CC3)C2=O)cc1 (single isomer, unassigned)
IC50 (Tryptase): 5 nM
IC50 (Serine protease 1 [1]): 1800 nM

SMILES: O=C(O)C1[C@@H](CC2CCNCC2)C(=O)N1C(=O)N1CCN(C(=O)Cc2ccc(CCCc3ccccc3)cc2)CC1 (single isomer, unassigned)
IC50 (Tryptase): 9 nM
IC50 (Serine protease 1 [1]): 1580 nM

SMILES: O=C(O)C1[C@@H](CC2CCNCC2)C(=O)N1C(=O)N1CCN(C(=O)Cc2ccc(OCc3ccccc3)cc2)CC1 (single isomer, unassigned)
IC50 (Tryptase): 1 nM
IC50 (Plasminogen): 380 nM
IC50 (Serine protease 1 [1]): 440 nM
IC50 (Serine protease 1 [3]): 440 nM
IC50 [4]: > 33000 nM
IC50 [5]: 1210 nM

SMILES: O=C(O)C1[C@@H](CC2CCNCC2)C(=O)N1C(=O)N1CCN(C(=O)CCCc2nc(-c3ccc(Cl)cc3)no2)CC1 (single isomer, unassigned)
IC50 (Tryptase): 5 nM
IC50 (Serine protease 1 [1]): 150 nM

SMILES: O=C(O)C1[C@@H](CC2CCNCC2)C(=O)N1C(=O)N1CCN(C(=O)Cc2ccc3c(c2)CCCC3)CC1 (single isomer, unassigned)
inhibition [2]: 18%
IC50 (Tryptase): 30 nM

SMILES: O=C(O)C1[C@@H](CC2CCNCC2)C(=O)N1C(=O)N1CCN(C(=O)c2ccc(Oc3ccccc3)cc2)CC1 (single isomer, unassigned)
IC50 (Tryptase): 7 nM
IC50 (Serine protease 1 [1]): 140 nM

IC50 (Tryptase): 14 nM
IC50 (Serine protease 1 [1]): 810 nM
SMILES: COc1cccc(CCC(=O)N2CCN(C(=O)N3C(=O)[C@H](CC4CCNCC4)C3C(=O)O)CC2)c1 (single isomer, unassigned)

SMILES: CC(=O)Nc1ccsc1C(=O)N1CCN(C(=O)N2C(=O)[C@H](CC3CCNCC3)C2C(=O)O)CC1 (single isomer, unassigned)
inhibition [2]: 68%
IC50 (Tryptase): 190 nM

SMILES: O=C(O)C1[C@@H](CC2CCNCC2)C(=O)N1C(=O)N1CCN(C(=O)c2ccc(OCc3ccccc3)cc2)CC1 (single isomer, unassigned)
IC50 (Tryptase): 4 nM
IC50 (Serine protease 1 [1]): 120 nM

SMILES: O=C(O)C1[C@@H](CC2CCNCC2)C(=O)N1C(=O)N1CCN(C(=O)CCCCCc2cccc3ccccc23)CC1 (single isomer, unassigned)
IC50 (Tryptase): 1 nM
IC50 (Serine protease 1 [1]): 240 nM

SMILES: O=C(CCCC(=O)N1CCN(C(=O)N2C(=O)[C@H](CC3CCNCC3)C2C(=O)O)CC1)Nc1ccccc1 (single isomer, unassigned)
IC50 (Tryptase): 12 nM
IC50 (Serine protease 1 [1]): 1350 nM

SMILES: O=C(O)C1[C@@H](CC2CCNCC2)C(=O)N1C(=O)N1CCN(C(=O)c2ccc(-c3ccccc3)cc2)CC1 (single isomer, unassigned)
IC50 (Tryptase): 6 nM
IC50 (Serine protease 1 [1]): 120 nM

SMILES: O=C(O)C1[C@@H](CC2CCNCC2)C(=O)N1C(=O)N1CCN(C(=O)c2ccc(CCCc3ccccc3)cc2)CC1 (single isomer, unassigned)
IC50 (Tryptase): 6 nM
IC50 (Serine protease 1 [1]): 310 nM

IC50 (Tryptase): 1.7 nM
IC50 (Serine protease 1 [1]): 5760 nM
SMILES: N=C(N)N1CCC[C@H](C[C@H]2C(=O)N(C(=O)N3CCN(C(=O)CCCCCc4ccccc4)CC3)[C@@H]2C(=O)O)C1

SMILES: O=C(O)C1[C@@H](CC2CCNCC2)C(=O)N1C(=O)N1CCN(C(=O)c2cc3cc(F)ccc3[nH]2)CC1 (single isomer, unassigned)
inhibition [2]: 63%
IC50 (Tryptase): 450 nM
